Where a SMILES comes first, the peptide text is derived from it. Bridges are numbered along the chain shown (N, C = ends). [ ]: non-standard residue; d: D form. R8 = C=CCCCCCC[C@@](C)(N)C(=O)O; S5 = C=CCCC[C@](C)(N)C(=O)O

Results on one compound are retold here after paper PMC6426897, “Inhibition of NLRP3 inflammasome activation by cell-permeable stapled peptides” (Scientific Reports, 2019).

In this series the test system is THP-1 cells. The experiment in a line: Internalization of FAM-labeled peptides by flow cytometry. The class given is in vitro ADME, human. As to conditions: THP-1, 37 °C, 4, 8 and 24 hours; FACS; three independent experiments. As to the method:
As NLRP3 and ASC are cytosolic proteins, we examined whether the designed peptides could be taken up by monocytic cells to exert their biological effects. To assess peptide internalization, ms_NLRP3^PYD, ms_ASC^PYD #5 and #6 peptides were labeled with the FAM fluorophore at the N-terminus. Internalization of the FAM-labeled peptides was measured as the mean fluorescence intensity (MFI) by fluorescence-assisted cell sorting (FACS). THP-1 cells were incubated with FAM-labeled ms_NLRP3^PYD (12.5, 25 and 50 μM), ms_ASC^PYD #5 and #6 peptides (50 and 100 μM) for 4, 8 and 24 hours. The internalization of the three FAM-labelled peptides was concentration dependent (Fig. 7A,B). […] We also examined the internalization of FAM-labeled peptides in THP-1 cells by confocal microscopy. THP-1 cells were incubated with FAM-ms_NLRP3^PYD (100 μM), FAM-ms_ASC^PYD #5 or FAM-ms_ASC^PYD #6 (100 μM) for 4, 8 and 18 hours. FAM-labeled peptides localized primarily in the cytosol, but not in the nucleus, of THP-1 cells (Fig. 7C).
THP-1 cells (0.5 × 10^6) were incubated with FAM-NLRP3^PYD (12.5-25-50 μM), FAM-ASC^PYD #5 or FAM-ASC^PYD #6 (50-100 μM) peptides in a 6 well-plate. After 4, 8 and 24 h incubation, THP-1 cells were washed twice with PBS and harvested. The analysis was performed on a BD FACSCANTO II (BD Biosciences), and the data were analyzed using FlowJo (Treestar).

As to `CC[C@H](C)[C@@H]1NC(=O)[C@H](CCCCN)NC(=O)[C@H](C)NC(=O)[C@H](CC(C)C)NC(=O)[C@H](CCCCN)NC(=O)[C@](C)(NC(=O)[C@H](C)NC(=O)[C@H](CCCNC(=N)N)NC(=O)[C@H](C)NC(=O)[C@@H](NC(C)=O)[C@@H](C)O)CCCCCCC=CCCC[C@@](C)(C(=O)N[C@@H](CCC(=O)O)C(=O)N[C@@H](CO)C(=O)N[C@H](C(N)=O)C(C)C)NC(=O)[C@H](CCCCN)NC1=O` [ms_ASC^PYD #5] (Ac-TARA[R8]KLAKIK[S5]ESV-NH2; staple 5-12), the “Fluorescent signal (MFI) of internalized peptide over time” value is reported as “the fluorescent intensity subsequently decreased over-time”.
